The values below come from ChEMBL document CHEMBL1121768, “Synthesis and platelet aggregation inhibitory activity of 4,5-bis(aryl)-2-substituted-thiazoles” (J Med Chem, 1981).

Common to all, as to type: functional
For test [1], the species on record is Homo sapiens. Kind of test: In vitro inhibition of collagen-induced platelet aggregation in human platelet rich plasma.
Test [2] has as its system Cavia porcellus. In words: Percent inhibition of platelet aggregation following oral administration to guinea pigs at a dose of 1 mg/kg.
Test [3] concerns Cavia porcellus. Kind of test: Percent inhibition of platelet aggregation following oral administration to guinea pigs at a dose of 10 mg/kg.
Test [4] relates to Cavia porcellus. In words: Percent inhibition of platelet aggregation following oral administration to guinea pigs at a dose of 5 mg/kg.
The species entered for test [5] is Cavia porcellus. Kind of test: In vitro inhibition of collagen-induced platelet aggregation in guinea pig platelet rich plasma.
Test [6] deals with Cavia porcellus. In words: Percent inhibition of platelet aggregation following oral administration to guinea pigs at a dose of 0.5 mg/kg.
Test [7] deals with Cavia porcellus. Kind of test: Percent inhibition of platelet aggregation at 12 hours following oral administration to guinea pigs at 5 mg/kg.
Test [8] deals with Cavia porcellus. In words: Percent inhibition of platelet aggregation at 16 hours following oral administration to guinea pigs at 5 mg/kg.
The test system of test [9] is Cavia porcellus. Kind of test: Percent inhibition of platelet aggregation at 0 hours following oral administration to guinea pigs at 5 mg/kg.
Test [10] has as its system Cavia porcellus. In words: Percent inhibition of platelet aggregation at 2 hours following oral administration to guinea pigs at 5 mg/kg.
Test [11] deals with Cavia porcellus. Kind of test: Percent inhibition of platelet aggregation following oral administration to guinea pigs at a dose of 0.1 mg/kg.
For test [12], the system named is Cavia porcellus. In words: Percent inhibition of platelet aggregation at 24 hours following oral administration to guinea pigs at 5 mg/kg.
Test [13] has as its system Cavia porcellus. In words: Percent inhibition of platelet aggregation at 8 hours following oral administration to guinea pigs at 5 mg/kg.
For test [14], the system named is Cavia porcellus. Kind of test: Percent inhibition of platelet aggregation at 4 hours following oral administration to guinea pigs at 5 mg/kg.

Converted amounts (≈) assume the structure as drawn.

`COc1ccc(-c2nc(CC(N)=O)sc2-c2ccc(OC)cc2)cc1` had an IC50 in test [1] of 0.0032 µg/mL (≈ 0.00903 µM). The inhibition in vivo at 1 mg/kg in test [2] was found to be 39%. For the same compound, at 10 mg/kg the inhibition in vivo in [3] was 100%. The compound also gave an inhibition in vivo at 5 mg/kg in test [4] of 96%.
For `COc1ccc(-c2nc(C(C)(C)CO)sc2-c2ccc(OC)cc2)cc1`, the IC50 in test [1] turned out to be 0.0032 µg/mL (≈ 0.00866 µM); in test [5], 0.01 µg/mL (≈ 0.0271 µM).
The compound `COc1ccc(-c2nc(CC(=O)[O-])sc2-c2ccc(OC)cc2)cc1.[Li+]` had an IC50 in test [1] of 0.032 µg/mL.
Take `COc1ccc(-c2nc(CCO)sc2-c2ccc(OC)cc2)cc1`: the IC50 in test [1] amounted to 0.00032 µg/mL (≈ 0.000937 µM); in test [5], 0.0032 µg/mL (≈ 0.00937 µM). In addition, in [2], testing at 1 mg/kg gave an inhibition in vivo of 9%. At 10 mg/kg the inhibition in vivo in test [3] was 100%. The compound further yielded an inhibition in vivo at 5 mg/kg in [4] of 79%.
Compound `FC(F)(F)c1nc(-c2ccc(Cl)cc2)c(-c2ccc(Cl)cc2)s1` registered an IC50 in test [1] of 0.032 µg/mL (≈ 0.0855 µM).
`FC(F)(F)c1nc(-c2ccccc2)c(-c2ccccc2)s1` registered a half-maximal inhibitory concentration (IC50) in [1] of 0.32 µg/mL (≈ 1.05 µM).
As for `COC(=O)Cc1nc(-c2ccc(OC)cc2)c(-c2ccc(OC)cc2)s1`, the midpoint of inhibition in [1], the IC50, lay at 0.0001 µg/mL (≈ 0.000271 µM). This IC50 is about 3200-fold lower than that of the compound before.
Take `COc1ccc(-c2nc(C)sc2-c2ccc(OC)cc2)cc1`: half-maximal inhibition in test [1] (IC50) required 0.00032 µg/mL (≈ 0.00103 µM).
Regarding `COc1ccc(-c2ncsc2-c2ccc(OC)cc2)cc1`, in test [1], the IC50 stood at 0.032 µg/mL (≈ 0.108 µM).
With `COc1ccc(-c2nc(C(C)C)sc2-c2ccc(OC)cc2)cc1`, the IC50 stood at 0.0032 µg/mL (≈ 0.00943 µM) in test [1] and 0.01 µg/mL (≈ 0.0295 µM) in test [5]. Also, the inhibition in vivo at 1 mg/kg in test [2] amounted to 6%. The same compound had an inhibition in vivo at 10 mg/kg in test [3] of 100%. Also, at 5 mg/kg the inhibition in vivo in test [4] was 85%.
The corresponding values for `COC(=O)C(C)(C)c1nc(-c2ccc(OC)cc2)c(-c2ccc(OC)cc2)s1` are 0.0032 µg/mL (≈ 0.00805 µM), 0.01 µg/mL (≈ 0.0252 µM), 27%, 100% and 100%.
In turn, `CC(=O)Oc1ccccc1C(=O)O` [ASPIRIN] came in with an IC50 in [1] of 10 µg/mL (≈ 55.5 µM).
Take `CC(C(=O)O)c1ccc(-c2ccccc2)c(F)c1` (centres undefined) [FLURBIPROFEN]: the IC50 in test [1] and in test [5] was 0.32 µg/mL (≈ 1.31 µM) each time.
As to `COc1ccc(-c2nc(C(F)(F)F)sc2-c2ccc(OC)cc2)cc1` [ITAZIGREL], the concentration for half-maximal inhibition (IC50) in [1] came out at 0.001 µg/mL (≈ 0.00274 µM); in [5] it was 0.01 µg/mL (≈ 0.0274 µM). For the same compound, at 0.5 mg/kg the inhibition in vivo in test [6] was 68.5%. Also, 1 mg/kg produced 83% inhibition in vivo in [2]. Moreover, the inhibition in vivo at 5 mg/kg in test [7] is 48.7%; in test [8], 16.2%; in test [9], 0%; in [10], 97%; in test [12] it was 10.3%; in test [4], 100%. Besides, the figures for the inhibition in vivo at 5 mg/kg in [13] and in [14] were 93.2% and 68.5%, respectively. For the same compound, 10 mg/kg produced 100% inhibition in vivo in test [3]. In addition, testing at 0.1 mg/kg in [11] gave an inhibition in vivo of 6%.

By IC50 is commonly meant the concentration that inhibits the measured activity by half. As a reminder, the inhibition in vivo is the drop in the measured response relative to a control, in per cent.
